Experiments:
[1] = biological target: Poly [ADP-ribose] polymerase 1 (Homo sapiens, UniProt P09874); experiment: Inhibition of human ARTD1 by fluorescence analysis
[2] = biological target: T1, Protein mono-ADP-ribosyltransferase PARP3 (Homo sapiens, UniProt Q9Y6F1); experiment: Inhibition of human ARTD3 by fluorescence analysis
T1 sequence (Q9Y6F1 whole entry): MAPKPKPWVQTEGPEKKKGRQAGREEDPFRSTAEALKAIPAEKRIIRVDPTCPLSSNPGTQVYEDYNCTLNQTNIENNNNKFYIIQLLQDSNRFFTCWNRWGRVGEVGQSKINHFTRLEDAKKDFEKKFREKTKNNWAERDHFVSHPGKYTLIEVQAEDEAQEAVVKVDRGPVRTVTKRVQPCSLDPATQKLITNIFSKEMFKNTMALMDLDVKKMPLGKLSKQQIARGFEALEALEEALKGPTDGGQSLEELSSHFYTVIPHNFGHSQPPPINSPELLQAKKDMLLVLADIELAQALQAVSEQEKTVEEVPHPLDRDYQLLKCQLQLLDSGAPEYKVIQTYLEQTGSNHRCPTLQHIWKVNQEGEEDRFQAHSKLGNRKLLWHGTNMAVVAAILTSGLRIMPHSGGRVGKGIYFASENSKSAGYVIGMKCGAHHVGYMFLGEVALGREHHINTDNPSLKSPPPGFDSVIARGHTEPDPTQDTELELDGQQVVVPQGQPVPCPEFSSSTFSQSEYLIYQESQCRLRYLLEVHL

[3] = biological target: Poly [ADP-ribose] polymerase 2 (Homo sapiens, UniProt Q9UGN5); experiment: Inhibition of human ARTD2 by fluorescence analysis
[4] = biological target: T2, Protein mono-ADP-ribosyltransferase PARP15 (Homo sapiens, UniProt Q460N3); experiment: Inhibition of human ARTD7 by fluorescence analysis
T2 sequence (Q460N3 whole entry): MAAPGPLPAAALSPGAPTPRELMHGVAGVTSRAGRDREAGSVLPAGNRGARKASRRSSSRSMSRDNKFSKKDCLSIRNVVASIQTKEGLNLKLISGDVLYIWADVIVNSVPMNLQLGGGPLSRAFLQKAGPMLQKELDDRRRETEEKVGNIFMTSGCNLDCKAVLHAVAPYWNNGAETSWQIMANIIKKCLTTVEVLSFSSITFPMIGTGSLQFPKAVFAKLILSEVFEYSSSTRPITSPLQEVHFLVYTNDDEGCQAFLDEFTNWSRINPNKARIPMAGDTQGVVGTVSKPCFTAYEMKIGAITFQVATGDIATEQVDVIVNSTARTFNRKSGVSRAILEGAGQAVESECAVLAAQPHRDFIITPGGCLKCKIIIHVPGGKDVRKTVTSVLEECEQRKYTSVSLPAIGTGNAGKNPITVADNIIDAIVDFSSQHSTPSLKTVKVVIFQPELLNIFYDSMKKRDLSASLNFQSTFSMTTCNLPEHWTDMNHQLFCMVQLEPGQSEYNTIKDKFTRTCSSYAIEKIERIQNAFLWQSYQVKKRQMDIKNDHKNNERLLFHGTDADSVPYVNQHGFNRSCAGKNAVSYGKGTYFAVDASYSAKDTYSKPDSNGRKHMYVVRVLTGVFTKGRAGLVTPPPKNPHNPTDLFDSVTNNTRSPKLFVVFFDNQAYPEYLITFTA

[5] = biological target: T3, Protein mono-ADP-ribosyltransferase PARP12 (Homo sapiens, UniProt Q9H0J9); experiment: Inhibition of human ARTD12 by fluorescence analysis
T3 sequence (Q9H0J9 whole entry): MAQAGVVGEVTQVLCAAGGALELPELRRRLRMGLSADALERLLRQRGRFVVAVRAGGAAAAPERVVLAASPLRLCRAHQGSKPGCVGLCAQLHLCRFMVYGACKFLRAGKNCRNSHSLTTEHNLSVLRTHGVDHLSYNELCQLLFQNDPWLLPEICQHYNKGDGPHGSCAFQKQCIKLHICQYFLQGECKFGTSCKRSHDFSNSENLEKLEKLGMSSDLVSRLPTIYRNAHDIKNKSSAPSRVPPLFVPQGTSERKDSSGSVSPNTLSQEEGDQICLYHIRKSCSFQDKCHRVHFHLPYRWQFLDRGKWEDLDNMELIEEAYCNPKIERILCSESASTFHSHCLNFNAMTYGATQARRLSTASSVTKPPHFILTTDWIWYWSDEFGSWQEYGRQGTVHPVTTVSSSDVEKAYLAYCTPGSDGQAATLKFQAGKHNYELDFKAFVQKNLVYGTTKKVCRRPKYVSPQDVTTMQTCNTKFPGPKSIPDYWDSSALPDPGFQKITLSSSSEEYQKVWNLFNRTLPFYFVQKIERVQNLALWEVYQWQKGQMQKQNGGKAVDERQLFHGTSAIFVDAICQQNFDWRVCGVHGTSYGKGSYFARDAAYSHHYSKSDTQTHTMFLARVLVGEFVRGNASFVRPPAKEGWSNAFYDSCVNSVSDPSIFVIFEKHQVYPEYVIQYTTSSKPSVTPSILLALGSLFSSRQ

[6] = biological target: Protein mono-ADP-ribosyltransferase PARP14 (Homo sapiens, UniProt Q460N5); experiment: Inhibition of human ARTD8 by fluorescence analysis
[7] = biological target: T4, Protein mono-ADP-ribosyltransferase PARP10 (Homo sapiens, UniProt Q53GL7); experiment: Inhibition of human ARTD10 by fluorescence analysis
T4 sequence (Q53GL7 whole entry): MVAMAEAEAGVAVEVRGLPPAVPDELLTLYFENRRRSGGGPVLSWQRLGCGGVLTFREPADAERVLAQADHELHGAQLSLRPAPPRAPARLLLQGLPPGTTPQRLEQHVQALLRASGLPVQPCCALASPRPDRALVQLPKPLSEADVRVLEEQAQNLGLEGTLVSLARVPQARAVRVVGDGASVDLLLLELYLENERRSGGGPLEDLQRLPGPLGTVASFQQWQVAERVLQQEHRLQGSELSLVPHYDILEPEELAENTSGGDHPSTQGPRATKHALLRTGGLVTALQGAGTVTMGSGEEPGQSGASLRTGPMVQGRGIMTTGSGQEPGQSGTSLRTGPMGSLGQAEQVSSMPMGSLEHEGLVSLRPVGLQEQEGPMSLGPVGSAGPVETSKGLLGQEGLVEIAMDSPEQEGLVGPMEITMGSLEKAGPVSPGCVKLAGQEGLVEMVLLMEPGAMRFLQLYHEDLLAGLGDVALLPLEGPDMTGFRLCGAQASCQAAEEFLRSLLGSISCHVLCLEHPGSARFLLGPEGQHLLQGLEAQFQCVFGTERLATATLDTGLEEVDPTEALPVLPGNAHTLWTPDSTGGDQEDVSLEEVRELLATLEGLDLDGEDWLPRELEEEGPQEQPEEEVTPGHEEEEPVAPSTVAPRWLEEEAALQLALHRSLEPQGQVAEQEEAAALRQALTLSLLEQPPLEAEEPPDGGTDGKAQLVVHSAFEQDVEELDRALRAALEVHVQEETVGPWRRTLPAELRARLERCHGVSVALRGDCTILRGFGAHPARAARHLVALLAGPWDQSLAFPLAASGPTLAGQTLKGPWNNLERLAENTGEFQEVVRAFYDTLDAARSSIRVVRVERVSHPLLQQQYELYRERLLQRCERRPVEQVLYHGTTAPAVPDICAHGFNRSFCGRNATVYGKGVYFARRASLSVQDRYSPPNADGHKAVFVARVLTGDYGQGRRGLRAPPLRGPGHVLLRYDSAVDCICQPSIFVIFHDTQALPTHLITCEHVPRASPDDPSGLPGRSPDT

[8] = biological target: Protein mono-ADP-ribosyltransferase PARP4 (Homo sapiens, UniProt Q9UKK3); experiment: Inhibition of human ARTD4 by fluorescence analysis
Protein mono-ADP-ribosyltransferase PARP4, sequence (Q9UKK3 whole entry): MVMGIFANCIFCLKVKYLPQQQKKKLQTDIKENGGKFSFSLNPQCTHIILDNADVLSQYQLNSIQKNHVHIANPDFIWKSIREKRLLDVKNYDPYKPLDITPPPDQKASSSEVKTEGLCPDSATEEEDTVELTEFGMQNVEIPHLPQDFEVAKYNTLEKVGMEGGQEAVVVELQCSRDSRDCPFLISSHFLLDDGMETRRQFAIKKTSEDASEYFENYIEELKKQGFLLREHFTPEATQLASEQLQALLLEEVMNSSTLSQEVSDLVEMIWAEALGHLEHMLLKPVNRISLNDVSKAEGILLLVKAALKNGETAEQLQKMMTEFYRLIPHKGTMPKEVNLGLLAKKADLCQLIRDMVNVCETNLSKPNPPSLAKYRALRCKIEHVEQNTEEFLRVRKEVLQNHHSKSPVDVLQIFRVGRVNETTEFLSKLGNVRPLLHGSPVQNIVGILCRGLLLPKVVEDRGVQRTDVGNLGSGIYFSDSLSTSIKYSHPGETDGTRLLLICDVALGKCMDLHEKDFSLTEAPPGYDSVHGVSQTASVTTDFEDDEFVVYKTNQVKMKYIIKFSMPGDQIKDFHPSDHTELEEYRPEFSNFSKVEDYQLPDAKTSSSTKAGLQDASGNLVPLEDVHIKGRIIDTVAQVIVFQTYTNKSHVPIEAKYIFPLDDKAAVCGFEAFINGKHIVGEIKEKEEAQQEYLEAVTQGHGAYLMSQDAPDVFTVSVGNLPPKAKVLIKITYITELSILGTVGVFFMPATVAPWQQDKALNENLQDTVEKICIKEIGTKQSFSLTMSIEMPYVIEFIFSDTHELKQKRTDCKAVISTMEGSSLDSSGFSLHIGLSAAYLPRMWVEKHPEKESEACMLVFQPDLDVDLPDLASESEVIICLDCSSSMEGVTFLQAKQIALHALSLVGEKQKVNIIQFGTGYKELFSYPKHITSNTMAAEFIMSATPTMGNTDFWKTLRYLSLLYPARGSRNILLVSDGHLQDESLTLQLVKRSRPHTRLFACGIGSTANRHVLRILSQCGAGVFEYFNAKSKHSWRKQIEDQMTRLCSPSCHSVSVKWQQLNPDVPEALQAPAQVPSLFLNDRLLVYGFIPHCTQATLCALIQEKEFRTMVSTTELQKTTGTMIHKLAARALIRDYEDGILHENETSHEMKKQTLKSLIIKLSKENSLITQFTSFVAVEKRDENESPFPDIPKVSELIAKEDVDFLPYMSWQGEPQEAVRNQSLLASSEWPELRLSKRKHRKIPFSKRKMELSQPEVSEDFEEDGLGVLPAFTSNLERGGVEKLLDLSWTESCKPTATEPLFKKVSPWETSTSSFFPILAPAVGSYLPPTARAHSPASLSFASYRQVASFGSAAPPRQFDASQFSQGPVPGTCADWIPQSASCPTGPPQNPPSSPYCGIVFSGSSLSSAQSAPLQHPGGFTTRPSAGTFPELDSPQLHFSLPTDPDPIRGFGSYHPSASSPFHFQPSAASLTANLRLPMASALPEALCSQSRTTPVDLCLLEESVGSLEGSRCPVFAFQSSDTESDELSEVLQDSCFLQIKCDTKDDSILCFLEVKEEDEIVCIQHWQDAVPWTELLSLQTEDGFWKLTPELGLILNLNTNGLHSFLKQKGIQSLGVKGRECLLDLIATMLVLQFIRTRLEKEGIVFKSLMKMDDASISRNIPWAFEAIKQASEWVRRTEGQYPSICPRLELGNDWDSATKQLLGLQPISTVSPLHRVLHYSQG

Protein mono-ADP-ribosyltransferase PARP14, sequence (Q460N5 whole entry): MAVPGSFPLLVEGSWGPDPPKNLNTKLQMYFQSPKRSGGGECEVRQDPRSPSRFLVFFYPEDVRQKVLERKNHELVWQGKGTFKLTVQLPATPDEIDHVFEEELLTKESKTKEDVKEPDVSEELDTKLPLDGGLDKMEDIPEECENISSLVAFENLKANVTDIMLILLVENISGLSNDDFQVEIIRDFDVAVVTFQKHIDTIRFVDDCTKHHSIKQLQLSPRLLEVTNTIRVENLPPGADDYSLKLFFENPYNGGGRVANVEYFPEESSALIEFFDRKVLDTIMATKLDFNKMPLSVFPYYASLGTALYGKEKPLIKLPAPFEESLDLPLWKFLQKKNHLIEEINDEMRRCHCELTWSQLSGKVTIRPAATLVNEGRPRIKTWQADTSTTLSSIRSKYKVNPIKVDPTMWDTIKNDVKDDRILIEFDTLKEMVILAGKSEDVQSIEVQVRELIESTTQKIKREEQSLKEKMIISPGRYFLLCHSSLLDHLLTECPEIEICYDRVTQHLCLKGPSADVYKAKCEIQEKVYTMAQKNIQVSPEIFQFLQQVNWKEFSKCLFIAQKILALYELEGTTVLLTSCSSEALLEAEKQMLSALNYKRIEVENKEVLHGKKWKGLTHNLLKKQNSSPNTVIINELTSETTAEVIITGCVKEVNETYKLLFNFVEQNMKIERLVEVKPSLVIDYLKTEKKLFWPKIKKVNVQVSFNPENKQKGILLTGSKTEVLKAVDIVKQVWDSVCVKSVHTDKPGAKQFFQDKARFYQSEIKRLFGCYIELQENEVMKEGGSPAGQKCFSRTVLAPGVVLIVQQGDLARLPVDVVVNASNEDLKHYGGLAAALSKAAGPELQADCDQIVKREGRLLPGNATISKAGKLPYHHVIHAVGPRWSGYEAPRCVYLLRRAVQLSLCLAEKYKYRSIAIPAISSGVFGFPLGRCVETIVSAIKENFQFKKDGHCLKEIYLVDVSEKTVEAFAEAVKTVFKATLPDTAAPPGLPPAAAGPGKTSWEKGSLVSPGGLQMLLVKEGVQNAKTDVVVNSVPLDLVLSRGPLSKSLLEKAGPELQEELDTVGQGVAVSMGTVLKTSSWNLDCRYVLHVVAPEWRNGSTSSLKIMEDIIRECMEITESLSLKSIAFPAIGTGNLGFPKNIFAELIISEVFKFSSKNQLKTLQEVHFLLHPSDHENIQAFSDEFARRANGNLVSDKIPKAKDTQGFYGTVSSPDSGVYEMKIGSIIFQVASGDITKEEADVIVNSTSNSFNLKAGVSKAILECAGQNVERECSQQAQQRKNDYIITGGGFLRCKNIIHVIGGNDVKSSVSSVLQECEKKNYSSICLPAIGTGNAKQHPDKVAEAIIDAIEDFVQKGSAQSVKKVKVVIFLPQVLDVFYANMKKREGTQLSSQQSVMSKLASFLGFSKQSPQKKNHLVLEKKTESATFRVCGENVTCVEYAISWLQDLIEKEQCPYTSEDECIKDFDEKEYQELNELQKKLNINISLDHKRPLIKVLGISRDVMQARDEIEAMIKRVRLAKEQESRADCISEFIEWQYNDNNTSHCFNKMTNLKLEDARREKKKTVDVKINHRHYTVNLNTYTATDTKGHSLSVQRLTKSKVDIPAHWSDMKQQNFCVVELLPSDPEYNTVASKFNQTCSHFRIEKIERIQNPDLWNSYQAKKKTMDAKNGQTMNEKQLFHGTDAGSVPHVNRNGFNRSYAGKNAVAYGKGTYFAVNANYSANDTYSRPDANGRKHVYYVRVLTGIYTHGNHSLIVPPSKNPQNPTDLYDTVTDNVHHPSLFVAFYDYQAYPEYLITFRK
Poly [ADP-ribose] polymerase 1, sequence (P09874 whole entry): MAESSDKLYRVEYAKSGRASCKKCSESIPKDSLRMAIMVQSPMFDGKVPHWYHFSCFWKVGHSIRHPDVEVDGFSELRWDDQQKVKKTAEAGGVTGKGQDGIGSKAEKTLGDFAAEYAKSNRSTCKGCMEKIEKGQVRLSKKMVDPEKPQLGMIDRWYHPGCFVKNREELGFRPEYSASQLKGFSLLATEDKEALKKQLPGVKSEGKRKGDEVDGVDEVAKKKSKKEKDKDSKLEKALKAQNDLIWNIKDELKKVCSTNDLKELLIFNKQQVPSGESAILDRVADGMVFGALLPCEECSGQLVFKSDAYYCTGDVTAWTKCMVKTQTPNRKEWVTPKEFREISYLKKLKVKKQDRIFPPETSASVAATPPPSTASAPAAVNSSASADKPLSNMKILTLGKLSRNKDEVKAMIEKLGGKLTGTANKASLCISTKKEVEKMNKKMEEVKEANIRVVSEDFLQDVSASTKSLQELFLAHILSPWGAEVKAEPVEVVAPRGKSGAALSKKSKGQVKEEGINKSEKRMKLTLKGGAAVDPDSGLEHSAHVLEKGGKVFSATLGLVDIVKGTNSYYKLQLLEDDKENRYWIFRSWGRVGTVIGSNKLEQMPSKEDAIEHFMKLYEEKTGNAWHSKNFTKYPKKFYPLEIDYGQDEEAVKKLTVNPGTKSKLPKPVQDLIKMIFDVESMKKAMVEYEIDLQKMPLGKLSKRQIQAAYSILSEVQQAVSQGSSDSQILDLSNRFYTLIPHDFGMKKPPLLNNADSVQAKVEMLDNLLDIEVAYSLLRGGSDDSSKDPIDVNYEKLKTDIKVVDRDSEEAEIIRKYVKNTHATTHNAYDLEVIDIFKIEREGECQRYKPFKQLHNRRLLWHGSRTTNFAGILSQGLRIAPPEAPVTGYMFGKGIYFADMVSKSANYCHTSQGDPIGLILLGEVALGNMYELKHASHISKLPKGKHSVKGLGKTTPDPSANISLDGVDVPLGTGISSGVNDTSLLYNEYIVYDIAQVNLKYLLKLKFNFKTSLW
Poly [ADP-ribose] polymerase 2, sequence (Q9UGN5 whole entry): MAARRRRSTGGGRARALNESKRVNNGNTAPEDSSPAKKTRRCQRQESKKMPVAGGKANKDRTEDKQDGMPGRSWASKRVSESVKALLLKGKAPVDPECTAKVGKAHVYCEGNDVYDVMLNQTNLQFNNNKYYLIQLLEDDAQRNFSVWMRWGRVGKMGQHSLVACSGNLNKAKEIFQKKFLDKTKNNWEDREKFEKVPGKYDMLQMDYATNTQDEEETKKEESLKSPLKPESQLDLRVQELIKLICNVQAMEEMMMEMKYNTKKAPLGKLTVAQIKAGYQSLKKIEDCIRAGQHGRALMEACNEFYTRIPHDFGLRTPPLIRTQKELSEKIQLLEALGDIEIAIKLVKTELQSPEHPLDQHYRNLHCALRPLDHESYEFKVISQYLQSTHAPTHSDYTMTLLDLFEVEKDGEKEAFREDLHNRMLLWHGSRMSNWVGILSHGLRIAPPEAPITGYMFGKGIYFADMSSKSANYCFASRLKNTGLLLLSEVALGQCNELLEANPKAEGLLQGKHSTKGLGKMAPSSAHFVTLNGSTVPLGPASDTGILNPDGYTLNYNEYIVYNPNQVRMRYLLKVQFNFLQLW

IC50 [1]: 77 µM
IC50 [2]: > 100 µM
IC50 [3]: > 100 µM
IC50 [4]: > 10 µM
IC50 [5]: > 10 µM
IC50 [6]: > 10 µM
IC50 [7]: > 10 µM
IC50 [8]: > 100 µM
SMILES: COc1ccc(C(=O)Nc2ccc(C(=O)N(c3ccncn3)c3ccccc3Cl)cc2)cc1

Source: ChEMBL document CHEMBL3751785, “Development and structural analysis of adenosine site binding tankyrase inhibitors” (Bioorg Med Chem Lett, 2016)
